# Source: ChEMBL document CHEMBL4190379 (Bioorg Med Chem Lett, 2018)
# What was measured:
# [1] = target: Bromodomain-containing protein 4 (Homo sapiens, UniProt O60885); test: Binding affinity to BRD4 in human H1299 cells stably expressing E2 and HPV16-LCR luciferase reporter incubated for 24 hrs by Bright-Glo luciferase reporter gene assay based BRD4 engagement assay; type: cell-based
# [2] = Intrinsic unbound clearance in human liver microsomes; type: ADME, microsome
# [3] = Intrinsic unbound clearance in mouse liver microsomes; type: ADME, microsome
# Mus musculus = test: Unbound clearance in mouse at 10 mg/kg, po; type: ADME, organism-based; conditions: in vivo
# [4] = Oral bioavailability in mouse at 10 mg/kg; type: ADME, organism-based; conditions: in vivo
# [5] = target: Bromodomain adjacent to zinc finger domain protein 2A (Homo sapiens) (UniProt Q9UIF9); test: Binding affinity to human BAZ2A expressed in bacterial system assessed as remaining binding level at 1 uM by BROMOscan assay relative to control
# Sequence of Bromodomain adjacent to zinc finger domain protein 2A (Homo sapiens) (Q9UIF9 whole entry, the tested form may be a part): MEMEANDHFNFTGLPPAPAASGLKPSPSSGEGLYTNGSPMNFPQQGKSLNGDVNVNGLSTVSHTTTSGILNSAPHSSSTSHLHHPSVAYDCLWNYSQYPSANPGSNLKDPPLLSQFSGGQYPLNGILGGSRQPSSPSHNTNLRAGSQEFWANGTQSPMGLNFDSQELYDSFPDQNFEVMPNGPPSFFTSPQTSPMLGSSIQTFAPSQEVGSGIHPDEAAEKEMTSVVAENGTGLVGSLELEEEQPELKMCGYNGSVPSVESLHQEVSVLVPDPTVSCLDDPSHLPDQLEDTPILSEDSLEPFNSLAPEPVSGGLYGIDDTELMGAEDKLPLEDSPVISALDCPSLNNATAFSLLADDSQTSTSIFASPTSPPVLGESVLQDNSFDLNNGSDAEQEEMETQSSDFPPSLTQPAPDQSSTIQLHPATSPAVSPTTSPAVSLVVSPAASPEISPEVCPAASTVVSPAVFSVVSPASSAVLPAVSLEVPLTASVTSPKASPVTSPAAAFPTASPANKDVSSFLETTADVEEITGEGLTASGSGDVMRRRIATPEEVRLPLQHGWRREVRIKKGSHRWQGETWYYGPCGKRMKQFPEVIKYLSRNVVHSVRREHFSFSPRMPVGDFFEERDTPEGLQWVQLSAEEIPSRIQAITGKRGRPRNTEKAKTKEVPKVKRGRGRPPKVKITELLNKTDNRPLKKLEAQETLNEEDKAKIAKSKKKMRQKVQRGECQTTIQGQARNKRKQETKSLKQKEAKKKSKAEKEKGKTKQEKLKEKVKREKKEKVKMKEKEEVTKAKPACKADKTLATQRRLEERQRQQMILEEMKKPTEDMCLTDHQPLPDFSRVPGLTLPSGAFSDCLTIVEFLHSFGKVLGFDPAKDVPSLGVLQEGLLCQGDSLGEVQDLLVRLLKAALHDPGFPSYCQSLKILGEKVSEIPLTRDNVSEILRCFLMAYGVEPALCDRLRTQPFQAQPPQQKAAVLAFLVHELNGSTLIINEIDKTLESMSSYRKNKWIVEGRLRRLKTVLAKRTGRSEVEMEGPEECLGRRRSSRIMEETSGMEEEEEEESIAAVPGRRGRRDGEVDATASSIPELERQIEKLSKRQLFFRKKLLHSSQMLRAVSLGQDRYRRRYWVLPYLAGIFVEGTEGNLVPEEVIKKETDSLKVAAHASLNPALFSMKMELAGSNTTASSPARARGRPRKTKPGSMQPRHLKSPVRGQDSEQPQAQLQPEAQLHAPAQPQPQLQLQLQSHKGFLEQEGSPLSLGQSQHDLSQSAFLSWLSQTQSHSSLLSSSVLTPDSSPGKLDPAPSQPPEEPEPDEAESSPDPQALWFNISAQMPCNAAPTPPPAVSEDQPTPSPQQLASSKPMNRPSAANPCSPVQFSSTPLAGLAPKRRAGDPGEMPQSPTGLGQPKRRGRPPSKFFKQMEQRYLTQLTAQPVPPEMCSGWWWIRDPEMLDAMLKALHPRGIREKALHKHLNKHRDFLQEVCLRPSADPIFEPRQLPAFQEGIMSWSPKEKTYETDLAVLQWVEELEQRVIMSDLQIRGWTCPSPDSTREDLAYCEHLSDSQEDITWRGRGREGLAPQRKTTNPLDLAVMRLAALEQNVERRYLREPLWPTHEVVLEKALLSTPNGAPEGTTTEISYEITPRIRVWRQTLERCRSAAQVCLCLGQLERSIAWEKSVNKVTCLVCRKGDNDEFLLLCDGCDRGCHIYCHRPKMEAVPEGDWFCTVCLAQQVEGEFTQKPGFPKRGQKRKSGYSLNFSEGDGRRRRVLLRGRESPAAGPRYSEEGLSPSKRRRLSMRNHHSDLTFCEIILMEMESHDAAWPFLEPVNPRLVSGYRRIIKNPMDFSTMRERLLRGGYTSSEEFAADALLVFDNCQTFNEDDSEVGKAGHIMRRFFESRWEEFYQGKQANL
# [6] = target: T1, Bromodomain-containing protein 7 (Homo sapiens) (UniProt Q9NPI1); test: Binding affinity to human BRD7 expressed in mammalian system assessed as remaining binding level at 1 uM by BROMOscan assay relative to control
# T1 sequence (whole entry): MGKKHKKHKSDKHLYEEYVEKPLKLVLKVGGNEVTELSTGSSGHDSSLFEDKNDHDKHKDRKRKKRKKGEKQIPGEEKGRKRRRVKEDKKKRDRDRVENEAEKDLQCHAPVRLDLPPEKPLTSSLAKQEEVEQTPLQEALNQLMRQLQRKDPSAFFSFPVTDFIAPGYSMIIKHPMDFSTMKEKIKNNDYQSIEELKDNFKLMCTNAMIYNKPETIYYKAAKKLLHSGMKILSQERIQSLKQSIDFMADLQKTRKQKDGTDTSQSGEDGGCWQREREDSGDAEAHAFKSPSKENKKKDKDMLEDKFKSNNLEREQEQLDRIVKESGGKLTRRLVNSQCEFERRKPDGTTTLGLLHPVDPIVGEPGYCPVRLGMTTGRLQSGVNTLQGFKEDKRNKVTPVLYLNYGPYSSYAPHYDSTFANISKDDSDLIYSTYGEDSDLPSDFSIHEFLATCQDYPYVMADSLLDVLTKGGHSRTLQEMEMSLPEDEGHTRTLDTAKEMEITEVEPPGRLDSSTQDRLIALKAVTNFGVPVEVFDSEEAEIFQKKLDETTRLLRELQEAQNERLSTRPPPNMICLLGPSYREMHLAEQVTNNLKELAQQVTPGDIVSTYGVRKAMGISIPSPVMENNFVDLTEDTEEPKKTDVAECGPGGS
# Peregrin (Homo sapiens) = target: T2, Peregrin (Homo sapiens) (UniProt P55201); test: Binding affinity to human BRPF1 expressed in bacterial system assessed as remaining binding level at 1 uM by BROMOscan assay relative to control
# T2 sequence (whole entry): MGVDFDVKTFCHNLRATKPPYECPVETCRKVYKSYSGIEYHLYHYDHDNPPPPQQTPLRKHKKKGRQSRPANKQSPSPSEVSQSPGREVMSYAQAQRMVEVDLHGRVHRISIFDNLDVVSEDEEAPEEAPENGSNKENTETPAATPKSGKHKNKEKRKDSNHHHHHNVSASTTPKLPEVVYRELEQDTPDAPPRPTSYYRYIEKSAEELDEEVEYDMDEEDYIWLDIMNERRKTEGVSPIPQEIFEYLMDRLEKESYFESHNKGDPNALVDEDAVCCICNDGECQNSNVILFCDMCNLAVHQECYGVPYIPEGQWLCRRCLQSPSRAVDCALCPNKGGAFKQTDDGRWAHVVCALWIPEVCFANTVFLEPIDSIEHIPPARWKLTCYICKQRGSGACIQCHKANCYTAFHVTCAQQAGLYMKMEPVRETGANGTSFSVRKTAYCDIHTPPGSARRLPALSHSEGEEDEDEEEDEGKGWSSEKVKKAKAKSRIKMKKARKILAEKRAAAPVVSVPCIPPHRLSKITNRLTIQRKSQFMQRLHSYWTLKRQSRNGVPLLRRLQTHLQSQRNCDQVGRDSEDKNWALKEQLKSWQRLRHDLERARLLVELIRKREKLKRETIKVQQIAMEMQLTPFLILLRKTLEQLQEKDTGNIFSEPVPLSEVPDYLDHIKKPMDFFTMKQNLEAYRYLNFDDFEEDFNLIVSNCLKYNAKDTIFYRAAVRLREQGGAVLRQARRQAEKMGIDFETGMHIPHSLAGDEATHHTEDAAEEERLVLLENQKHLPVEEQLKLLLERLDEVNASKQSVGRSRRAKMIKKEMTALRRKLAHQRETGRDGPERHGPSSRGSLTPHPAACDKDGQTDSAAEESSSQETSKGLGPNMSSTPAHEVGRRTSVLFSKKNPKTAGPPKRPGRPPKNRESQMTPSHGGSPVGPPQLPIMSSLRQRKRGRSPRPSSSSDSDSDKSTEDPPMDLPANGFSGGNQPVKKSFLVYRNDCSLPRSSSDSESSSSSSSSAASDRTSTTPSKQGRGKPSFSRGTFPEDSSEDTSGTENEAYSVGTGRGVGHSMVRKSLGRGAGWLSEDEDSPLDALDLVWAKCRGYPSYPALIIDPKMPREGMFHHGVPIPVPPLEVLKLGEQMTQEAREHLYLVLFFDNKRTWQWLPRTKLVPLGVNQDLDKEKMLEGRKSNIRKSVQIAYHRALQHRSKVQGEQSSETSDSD
# [7] = target: Chromatin remodeling regulator CECR2 (Homo sapiens) (UniProt Q9BXF3); test: Binding affinity to human CECR2 expressed in bacterial system assessed as remaining binding level at 1 uM by BROMOscan assay relative to control
# Sequence of Chromatin remodeling regulator CECR2 (Homo sapiens) (Q9BXF3 whole entry, looked up): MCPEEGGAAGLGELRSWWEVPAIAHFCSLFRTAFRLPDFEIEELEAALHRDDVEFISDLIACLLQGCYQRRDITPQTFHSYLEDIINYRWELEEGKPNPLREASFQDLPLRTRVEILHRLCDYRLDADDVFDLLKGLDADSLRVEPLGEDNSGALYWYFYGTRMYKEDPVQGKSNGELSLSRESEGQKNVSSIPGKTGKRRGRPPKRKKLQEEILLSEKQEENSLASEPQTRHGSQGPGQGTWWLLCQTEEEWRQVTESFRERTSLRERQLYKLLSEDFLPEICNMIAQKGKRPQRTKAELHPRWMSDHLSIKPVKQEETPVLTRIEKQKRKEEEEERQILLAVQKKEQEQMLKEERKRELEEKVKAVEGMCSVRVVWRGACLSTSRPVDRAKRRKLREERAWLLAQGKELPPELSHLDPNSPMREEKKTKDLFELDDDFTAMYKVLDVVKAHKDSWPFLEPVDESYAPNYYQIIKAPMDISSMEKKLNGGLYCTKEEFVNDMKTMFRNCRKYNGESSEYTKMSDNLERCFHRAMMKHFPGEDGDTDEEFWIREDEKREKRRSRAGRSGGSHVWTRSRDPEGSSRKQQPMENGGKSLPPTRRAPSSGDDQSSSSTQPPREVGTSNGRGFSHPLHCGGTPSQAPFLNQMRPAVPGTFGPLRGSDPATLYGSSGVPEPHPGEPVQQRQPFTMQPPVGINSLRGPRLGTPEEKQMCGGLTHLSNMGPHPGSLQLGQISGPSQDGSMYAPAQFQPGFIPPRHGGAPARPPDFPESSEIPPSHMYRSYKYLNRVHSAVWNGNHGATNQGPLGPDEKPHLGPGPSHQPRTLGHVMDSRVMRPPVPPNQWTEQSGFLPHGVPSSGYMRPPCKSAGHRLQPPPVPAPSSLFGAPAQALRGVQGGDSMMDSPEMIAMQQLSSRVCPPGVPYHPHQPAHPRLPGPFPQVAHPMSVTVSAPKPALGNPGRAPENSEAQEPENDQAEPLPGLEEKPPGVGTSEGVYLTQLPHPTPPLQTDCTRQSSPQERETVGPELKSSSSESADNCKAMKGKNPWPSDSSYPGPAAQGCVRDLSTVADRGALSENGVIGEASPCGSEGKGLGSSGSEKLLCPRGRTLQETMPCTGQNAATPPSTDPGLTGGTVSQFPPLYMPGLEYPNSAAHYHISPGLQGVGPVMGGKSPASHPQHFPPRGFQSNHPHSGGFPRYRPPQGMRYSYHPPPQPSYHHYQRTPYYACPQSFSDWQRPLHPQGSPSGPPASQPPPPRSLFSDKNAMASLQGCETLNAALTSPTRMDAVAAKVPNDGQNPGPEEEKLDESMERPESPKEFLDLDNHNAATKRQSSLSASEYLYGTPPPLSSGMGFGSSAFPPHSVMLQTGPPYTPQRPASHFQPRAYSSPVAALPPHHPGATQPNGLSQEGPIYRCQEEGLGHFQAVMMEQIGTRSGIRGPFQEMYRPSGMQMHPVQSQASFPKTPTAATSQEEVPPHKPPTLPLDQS
# [8] = target: Histone acetyltransferase KAT2B (Homo sapiens) (UniProt Q92831); test: Binding affinity to human PCAF expressed in mammalian system assessed as remaining binding level at 1 uM by BROMOscan assay relative to control
# Sequence of Histone acetyltransferase KAT2B (Homo sapiens) (Q92831 whole entry, looked up): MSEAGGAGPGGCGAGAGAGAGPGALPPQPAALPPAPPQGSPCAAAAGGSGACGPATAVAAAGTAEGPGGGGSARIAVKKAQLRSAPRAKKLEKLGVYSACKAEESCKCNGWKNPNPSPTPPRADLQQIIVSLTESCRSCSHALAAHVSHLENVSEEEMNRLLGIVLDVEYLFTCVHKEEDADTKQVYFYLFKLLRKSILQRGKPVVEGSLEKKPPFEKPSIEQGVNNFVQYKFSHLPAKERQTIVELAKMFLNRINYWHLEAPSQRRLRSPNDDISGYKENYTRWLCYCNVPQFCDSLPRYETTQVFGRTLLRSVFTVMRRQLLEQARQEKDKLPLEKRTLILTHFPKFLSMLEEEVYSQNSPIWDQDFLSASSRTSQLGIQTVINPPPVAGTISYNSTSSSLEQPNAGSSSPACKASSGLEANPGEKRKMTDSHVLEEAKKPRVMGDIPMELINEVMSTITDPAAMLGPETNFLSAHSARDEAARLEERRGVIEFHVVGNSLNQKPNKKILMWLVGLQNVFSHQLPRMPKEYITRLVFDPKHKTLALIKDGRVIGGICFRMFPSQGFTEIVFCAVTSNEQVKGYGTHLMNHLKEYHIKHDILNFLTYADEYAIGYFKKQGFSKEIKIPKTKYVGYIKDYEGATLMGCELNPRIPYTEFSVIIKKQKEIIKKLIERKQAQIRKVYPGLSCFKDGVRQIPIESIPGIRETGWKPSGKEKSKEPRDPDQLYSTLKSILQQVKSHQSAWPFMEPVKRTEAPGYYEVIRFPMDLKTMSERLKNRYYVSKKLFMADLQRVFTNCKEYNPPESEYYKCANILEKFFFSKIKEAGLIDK
IC50 [1] [nM],CL free [2] [mL/min/kg],CL free [3] [mL/min/kg],CL free (Mus musculus) [mL/min/kg],bioavailability [4] [%],Activity [5] [%],Activity [6] [%],Activity (Peregrin (Homo sapiens)) [%],Activity [7] [%],Activity [8] [%],SMILES
2.5,91.7,317,1300,34,100,100,69,100,82,Cn1cc2c3c(c[nH]c(=O)c31)-c1cc(CS(C)(=O)=O)ccc1N(c1ccc(F)cc1)C2
1.7,50,233,157,32,26,96,1.2,67,94,Cn1cc2c3c(c[nH]c3c1=O)CN(c1ccccn1)c1ccc(CS(C)(=O)=O)cc1-2
3.6,< 51.7,533,750,93,47,92,14,81,90,Cn1cc2c3c(c[nH]c3c1=O)CN(c1ccc(F)cc1F)c1ccc(CS(C)(=O)=O)cc1-2
